Test results: paper PMC12703938, “Positive modulation of sigma-1 receptor: a new weapon to mitigate disease progression in amyotrophic lateral sclerosis” (Translational Neurodegeneration, 2025)
Where a name gives a salt, the structure may show the parent alone.

Test system: T1, sigma-1 receptor (S1R)
T1 construct: gene SIGMAR1; S1R-GFP expressed in CHO cells; with BiP
Test: S1R/BiP dissociation assay in S1R-GFP CHO cells (GFP-Trap, BiP ELISA)
Type: cell-based

C[C@]12CC[C@H](O)CC1=CC[C@@H]1[C@@H]2CC[C@]2(C)C(=O)CC[C@@H]12 [DHEA]
IC50: 1.17 µM
